Reference: patent US11203608B2, “Platinum-containing compounds, and related compositions and uses thereof” (Massachusetts Institute of Technology, priority 2019, dated 2021)
Read-outs that look alike come from different tables or passages of the source.

Assays:
[1] = tested on: APC−/−; P53−/−; TdTomato+ (AP-tdt) organoids; assay: Viability of AP-tdt murine colorectal cancer organoids, resazurin assay; type: cell-based; details: 72-h exposure (table title), read-out: IC50 against AP-tdt organoids
Excerpt: (§1) Colonic crypts were isolated and colon organoids were generated from the following mouse genotypes on a C57Bl/6 background: 1. Rosa-LSL-TdTomato (hereafter LSL-tdt), 2. P53^f1/f1; LSL-tdt, and 3. LSL-KRAS^G12D/WT; P53^fl/fl; LSL-tdt mice. Subsequently, the pSECC-APC plasmid (carrying Cre, Cas9, and sgAPC) was transfected into each of the above three genotypes of colon organoids. This transfection strategy generated, in a single step, the following colorectal cancer organoids, including 1. APC^−/−; TdTomato^+ (A-tdt), 2. APC^−/−; P53^−/−; TdTomato^+ (AP-tdt), and 3. APC^−/−; KRAS^G12D/WT; P53^−/−; TdTomato^+ (AKP-tdt). Organoids of the desired genotype were selected for by Wnt/Rspo withdrawal for APC^−/−, Nutlin-3 addition for P53^−/−, and EGF withdrawal for KRAS^G12D.
(§2) Twenty four hours after seeding the organoids, a media change was performed and dose responses of oxaliplatin, doxorubicin and doxaliplatin were added. […] Organoids were cultured in Advanced DMEM/F12 supplemented with 2 mM GlutaMAX, 1% Penicillin-Streptomycin, 2% B27, and Y-27632 (10 μM).

[2] = tested on: PC3 human prostate adenocarcinoma; assay: Cell growth, resazurin assay, PC3; type: cell-based; details: 96-h exposure (table title)
Description: (§4) Cells were cultured in 10 mL of Advanced DMEM/F12 (ADMEM/F12), supplemented with 5% FBS, 2 mM GlutaMAX, and 1% Penicillin-Streptomycin in 10 cm tissue culture plates. Cells were then plated into 96-well plates with about 2.5×10^3 cells per well. Cells were plated with 200 μL per well of ADMEM/F12 supplemented with 5% FBS, 2 mM GlutaMAX, and 1% Penicillin-Streptomycin. Cells were treated with dose responses of doxorubicin, oxaliplatin, or doxaliplatin upon plating. The cells were then cultured for 72 hours following drug treatment, and cell growth was measured by resazurin assay.

U2OS human osteosarcoma = assay: Cell growth, resazurin assay, U2OS; type: cell-based; details: 96-h exposure (table title), read-out: IC50 U2OS (bone)
Description: as §4

[3] = tested on: doxorubicin-resistant A2780ADR human ovarian cancer cell line; assay: Cell growth, resazurin assay, A2780ADR; type: cell-based; details: 72-h exposure
Description: as §4

[4] = tested on: MDA-MB-231 human breast adenocarcinoma; assay: Cell growth, resazurin assay, MDA-MB-231; type: cell-based; details: 96-h exposure (table title)
Description: as §4

[5] = tested on: doxorubicin-resistant A2780ADR ovarian cancer cell line
Description: (§5) ICP-MS was performed on an Agilent 7900 ICP-MS in helium mode.
(§6) The cells in a six-well plate were treated with oxaliplatin, doxaliplatin, or a mixture of doxorubicin and oxaliplatin at indicated concentration in 2 mL of Advanced DMEM/F12 (ADMEM/F12), supplemented with 5% FBS, 2 mM GlutaMAX, and 1% Penicillin-Streptomycin. After three hours, the media were removed. The cells were washed with xl PBS buffer containing EDTA (100 μM, 4 mL×2). To each well, MilliQ water (1.0 mL) was added. After 15 min, the cells were suspended. A portion of the resulting cell lysate (900 μL) was transferred to an Eppendorf tube. The samples were frozen in liquid nitrogen and thawed at room temperature. This procedure was repeated for three times. The insoluble lysate was pelleted (10000 rpm for 10 min). […] Pierce 660 nm Protein solution (200 μL) was added to each well. An aliquot of the lysate (14.2 μL) was added to each well. The plate was shaken and read on a plate reader. The remaining samples were frozen at liquid nitrogen temperature and lyophilized. The dried material was digested with Aristar® ultrapure concentrated nitric acid (70%) at 70° C. for one hour. An aliquot of this solution (142 μL) was mixed with molecular biology grade water (2000 μL) and a terbium internal standard (40 μL, 100 ppb). The platinum content was then determined using an Agilent 7900 ICP-MS in helium mode. The concentration of platinum in the cells was normalized to measured protein concentration described above.

[6] = tested on: cisplatin-resistant A2780CIS human ovarian cancer cell line; assay: Cell growth, resazurin assay, A2780CIS; type: cell-based; details: 72-h exposure
Description: as §4

[7] = tested on: HL60 human leukemia cell line; assay: Cell growth, resazurin assay, HL60; type: cell-based; details: 96-h exposure (table title)
Description: as §4

[8] = tested on: APC−/−; KRASG12D/WT; P53−/−; TdTomato+ (AKP-tdt) organoids; assay: Viability of AKP-tdt murine colorectal cancer organoids, resazurin assay; type: cell-based; details: 72-h exposure (table title), read-out: IC50 against AKP-tdt organoids
Excerpt: as §1, §2

[9] = tested on: A2780 human ovarian cancer cell line; assay: Cell growth, resazurin assay, A2780; type: cell-based; details: A2780, 72-h exposure
Description: as §4

[10] = tested on: HT-29 human colorectal adenocarcinoma; assay: Cell growth, resazurin assay, HT-29; type: cell-based; details: 96-h exposure (table title), read-out: IC50 HT-29 (colon)
Description: as §4

[11] = tested on: A549 human lung carcinoma; assay: Cell growth, resazurin assay, A549; type: cell-based; details: 96-h exposure (table title)
Description: as §4

[12] = tested on: APC−/−; KRASG12D/WT; P53−/− (AKP) organoids; assay: Viability of AKP murine colorectal cancer organoids; type: cell-based; details: 72-h exposure, read-out: IC50 against AKP organoids
Excerpt: (§3) To generate 4. APC^−/−; KRAS^G12D/WT; P53^−/−; (AKP) and 5. APC^−/−; KRAS^G12D/WT; P53^−/−; MSH2^−/− (AKP-MSH2) colon cancer organoids, colonic crypts were isolated and colon organoids were generated from the following mouse genotypes on a C57Bl/6 background: 4. LSL-KRAS^G12D/WT; P53^fl/fl mice and 5. LSL-KRAS^G12D; P53^fl/fl; MSH2^fl/fl mice. Subsequently, the pSECC-APC plasmid (carrying Cre, Cas9, and sgAPC) was transfected into each of the above two genotypes of colon organoids. Following pSECC-APC transfection, Wnt/Rspo withdrawal was performed and surviving (APC^−/−) single organoids were cloned and PCR genotyped for Cre mediated deletion of p53 and/or MSH2, and for Cre mediated activation of oncogenic KRAS^G12D.
as §2

[13] = tested on: OVCAR8-OXR oxaliplatin-resistant human ovarian cancer cell line; assay: Cell growth, resazurin assay, OVCAR8-OXR; details: for Fold Resistance (IC50, OVCAR8OXR vs OVCAR8): based on IC50 values; for Fold Resistance (IC80, OVCAR8OXR vs OVCAR8): based on IC80 values; for IC50: read-out: IC50 OVCAR8OXR; for IC80: read-out: IC80 OVCAR8OXR
Description: Cells were cultured in 10 mL of Advanced DMEM/F12 (ADMEM/F12), supplemented with 5% FBS, 2 mM GlutaMAX, and 1% Penicillin-Streptomycin in 10 cm tissue culture plates. Cells were then plated into 96-well plates with about 2.5×10^3 cells per well. Cells were plated with 200 μL per well of ADMEM/F12 supplemented with 5% FBS, 2 mM GlutaMAX, and 1% Penicillin-Streptomycin. […] The cells were then cultured for 72 hours following drug treatment, and cell growth was measured by resazurin assay.

[14] = tested on: A2780 human ovarian cancer cell line; assay: Whole-cell platinum uptake by ICP-MS, A2780; details: three hours
Description: as §5, §6

[15] = tested on: APC−/−; KRASG12D/WT; P53−/−; MSH2−/− (AKP-MSH2) organoids; assay: Viability of AKP-MSH2 murine colorectal cancer organoids; type: cell-based; details: 72-h exposure, read-out: IC50 against AKP-MSH2 organoids
Excerpt: as §3, §2

[16] = tested on: OVCAR8 human ovarian cancer cell line; assay: Cell growth, resazurin assay, OVCAR8; type: cell-based; details: 72-h exposure
Description: as §4

[17] = tested on: APC−/−; TdTomato+ (A-tdt) organoids; assay: Viability of A-tdt murine colorectal cancer organoids, resazurin assay; type: cell-based; details: 72-h exposure (table title), read-out: IC50 against A-tdt organoids
Excerpt: as §1, §2

[18] = tested on: A2780 human ovarian cancer cell line; details: human, 3 h
Description: as §5, §6

O=C1[O][Pt]2([NH][C@@H]3CCCC[C@H]3[NH]2)[O]C1=O [Ox, oxaliplatin]
IC50 [1]: 1500 nM | IC50 [2]: 1000 nM | IC50 (U2OS human osteosarcoma): 580 nM | IC50 [3]: 430 nM | IC90 [3]: 2400 nM | IC95 [3]: 29000 nM | IC50 [4]: 920 nM | Platinum drug uptake (separate comparison experiment) [5]: 0.0065 ± 0.0004 nmol/mg protein | Platinum drug uptake ([5]; A2780ADR, [Drug] 0.20 μM, three hours): 0.0011 ± 0.0004 nmol/mg protein | Platinum drug uptake ([5]; A2780ADR, [Drug] 1.0 μM, three hours): 0.0039 ± 0.0001 nmol/mg protein | Platinum drug uptake ([5]; A2780ADR, [Drug] 5.0 μM, three hours): 0.023 ± 0.001 nmol/mg protein | IC50 [6]: 430 nM | IC90 [6]: 6600 nM | IC95 [6]: 13000 nM | IC50 [7]: 560 nM | IC50 [8]: 4100 nM | IC50 [9]: 170 nM | IC90 [9]: 590 nM | IC95 [9]: 5600 nM | IC50 [10]: 470 nM | IC50 [11]: 400 nM | IC50 [12]: 1400 nM | Fold Resistance (IC50, OVCAR8OXR vs OVCAR8) ([13]; 72-h exposure): 14 fold | Fold Resistance (IC80, OVCAR8OXR vs OVCAR8) ([13]; 72-h exposure): 3.3 fold | IC50 ([13]; 72-h exposure): 8200 ± 1300 nM | IC80 ([13]; 72-h exposure): 40000 ± 2000 nM | Platinum drug uptake ([14]; A2780, [Drug] 0.20 μM): 0.0029 ± 0.0006 nmol/mg protein | Platinum drug uptake ([14]; A2780, [Drug] 1.0 μM): 0.0093 ± 0.0004 nmol/mg protein | Platinum drug uptake ([14]; A2780, [Drug] 5.0 μM): 0.050 ± 0.004 nmol/mg protein | Platinum drug uptake (separate comparison experiment) ([14]; A2780, single drug 1.0 μM or oxaliplatin 1.0 μM + doxorubicin 1.0 μM): 0.011 ± 0.000 nmol/mg protein | IC50 [15]: 2200 nM | IC50 [16]: 580 ± 60 nM | IC80 [16]: 12000 ± 3000 nM | IC50 [17]: 2200 nM

COc1cccc2c1C(=O)c1c(O)c3c(c(O)c1C2=O)C[C@@](O)(C(=O)CO)C[C@@H]3O[C@H]1C[C@H](N)[C@H](O)[C@H](C)O1 [DOX, doxorubicin]
IC50 ([1]; Mus musculus): 45 nM | IC50 ([2]; Homo sapiens): 41 nM | IC50 (U2OS human osteosarcoma; Homo sapiens, U2OS): 13 nM | IC95 [3]: 1600 nM | IC50 ([3]; Homo sapiens, A2780 ADR): 54 nM | IC90 ([3]; Homo sapiens, A2780 ADR): 620 nM | IC50 ([4]; Homo sapiens, MDA-MB-231): 75 nM | Platinum drug uptake ([5]; human, 3 h, 0.2 μM): 0.0087 ± 0.0008 nmol/mg protein | Platinum drug uptake ([5]; human, 3 h, 1 μM): 0.051 ± 0.001 nmol/mg protein | Platinum drug uptake ([5]; human, 3 h, 5 μM): 0.36 ± 0.07 nmol/mg protein | IC95 [6]: 540 nM | IC50 ([6]; Homo sapiens): 50 nM | IC90 ([6]; Homo sapiens): 390 nM | IC50 ([7]; Homo sapiens, HL-60): 43 nM | IC50 ([8]; Mus musculus): 75 nM | IC95 [9]: 160 nM | IC50 ([9]; Homo sapiens): 11 nM | IC90 ([9]; Homo sapiens): 75 nM | IC50 ([10]; Homo sapiens, HT-29): 38 nM | IC50 ([11]; Homo sapiens, A549): 23 nM | IC50 ([12]; Mus musculus): 9.1 nM | IC50 ([13]; Homo sapiens, 72 h): 250 ± 10 nM | IC80 ([13]; Homo sapiens, 72 h): 740 ± 50 nM | Fold Resistance (IC50, OVCAR8OXR vs OVCAR8) ([13]; 72-h exposure): 2.9 fold | Fold Resistance (IC80, OVCAR8OXR vs OVCAR8) ([13]; 72-h exposure): 1.8 fold | IC50 ([15]; Mus musculus): 6.5 nM | IC50 ([16]; Homo sapiens, OVCAR-8): 86 ± 3 nM | IC80 ([16]; Homo sapiens, OVCAR-8): 410 ± 20 nM | Platinum drug uptake ([18]; 0.2 μM): 0.023 ± 0.002 nmol/mg protein | Platinum drug uptake ([18]; 1 μM): 0.12 ± 0.01 nmol/mg protein | Platinum drug uptake ([18]; 5 μM): 0.63 ± 0.03 nmol/mg protein | IC50 ([17]; Mus musculus): 58 nM
